Experimental data reported in US20220281865A1, “DIHYDROPYRIMIDINE DERIVATIVES AND USES THEREOF IN THE TREATMENT OF HBV INFECTION OR OF HBV-INDUCED DISEASES” (Janssen Sciences Ireland Unlimited Company, priority 2019, published 2022).

Tests used:
HBV = test: Anti-HBV activity in HepG2.2.15 cells (HBV DNA in culture medium by qPCR); assay type: cell-based; settings: Hepatitis B virus, 144 h, 6 days treatment
Protocol: (§1) HepG2.2.15 (the HepG2.2.15 cell line can be produced by transfection of the HepG2 cell line as described in Sells, Chen, and Acs 1987 (Proc. Natl. Acad. Sci. USA 84: 1005-1009), and the HepG2 cell line is available from ATCC® under number HB-8065™)
(§2) HepG2.2.15 cells were plated into 96-well plate in 2% FBS culture medium at the density of 40,000 cells/well and 5,000 cells/well for HBV inhibitory activity and cytotoxicity determination, respectively. After incubation at 37° C., 5% CO2 overnight, cells were treated with medium containing compounds for 6 days with medium and compounds refreshed after 3 days of treatment. Each compound was tested in a 1:3 serial dilutions at 8 different concentrations in triplicate. The highest concentration of the compounds was 10 uM or 1 uM for anti-HBV activity assay and 100 uM for cytotoxicity determination.
The change of HBV DNA level induced by the compounds was assessed by quantitative real-time polymerase chain reaction (qPCR). Briefly, the HBV DNA in the culture medium was extracted using QIAamp 96 DNA Blood Kit according to the manual and then quantified by real-time PCR assay using the primers and probe in the table 1 below.
(§3) EC50 and CC50 values are calculated by the GRAPHPAD PRISM software.

[1] = Cytotoxicity determination in HepG2.2.15 cells (CCK-8 cell viability); assay type: cell-based; settings: human, 6 days treatment, CCK-8 assay
Protocol: as §1, §2
Cell viability was determined by CCK-8 assay. After 6 days of compounds treatment, 20 μl CCK-8 reagents were added to each well of cytotoxicity assay plates. Cell plates were incubated at 37° C., 5% CO2 for 2.5 h. The absorbance at 450 nm wavelength and the absorbance at 630 nm wavelength as reference was measured.
as §3

CCOC(=O)C1=C(CN2CC(F)(F)[C@H]3CN(C(=O)C(C)(C)C(=O)O)CC[C@H]32)NC(c2nccs2)=N[C@H]1c1cccc(F)c1C [Compound I-4, 3-((cis)-1-(((S)-5-(ethoxycarbonyl)-6-(3-fluoro-2-methylphenyl)-2-(thiazol-2-yl)-3,6-dihydropyrimidin-4-yl)methyl)-3,3-difluorohexahydro-1H-pyrrolo[3,2-c]pyridin-5(6H)-yl)-2,2-dimethyl-3-oxopropanoic acid]
EC50 (HBV): 0.081 µM | CC50 at 6 days [1]: 34.4 µM

CCOC(=O)C1=C(CN2CC(F)(F)[C@H]3CC(=O)N(CC(C)(C)C(=O)O)C[C@H]32)NC(c2nccs2)=N[C@H]1c1cccc(F)c1C (single isomer, unassigned) [Compound I-2, 3-((3aS*,7aS*)-1-(((S)-5-(ethoxycarbonyl)-6-(3-fluoro-2-methylphenyl)-2-(thiazol-2-yl)-3,6-dihydropyrimidin-4-yl)methyl)-3,3-difluoro-5-oxohexahydro-1H-pyrrolo[2,3-c]pyridin-6(2H)-yl)-2,2-dimethylpropanoic acid]
EC50 (HBV): 0.034 µM | CC50 at 6 days [1]: 50.4 µM

CCOC(=O)C1=C(CN2CC(F)(F)[C@H]3C(=O)N(CC(C)(C)C(=O)O)CC[C@H]32)NC(c2nccs2)=N[C@H]1c1cccc(F)c1C (single isomer, unassigned) [Compound I-5, 3-((3aR*,7aR*)-1-(((S)-5-(ethoxycarbonyl)-6-(3-fluoro-2-methylphenyl)-2-(thiazol-2-yl)-3,6-dihydropyrimidin-4-yl)methyl)-3,3-difluoro-4-oxohexahydro-1H-pyrrolo[3,2-c]pyridin-5(6H)-yl)-2,2-dimethylpropanoic acid]
EC50 (HBV): 0.048 µM | CC50 at 6 days [1]: 47.1 µM

CCOC(=O)C1=C(CN2CC(F)(F)[C@H]3CCN(CC(C)(C)C(=O)O)C(=O)[C@H]32)NC(c2nccs2)=N[C@H]1c1cccc(F)c1C (single isomer, unassigned) [Compound I-1, 3-((3aS*,7aS*)-1-(((S)-5-(ethoxycarbonyl)-6-(3-fluoro-2-methylphenyl)-2-(thiazol-2-yl)-3,6-dihydropyrimidin-4-yl)methyl)-3,3-difluoro-7-oxohexahydro-1H-pyrrolo[2,3-c]pyridin-6(2H)-yl)-2,2-dimethylpropanoic acid]
EC50 (HBV): 0.06 µM | CC50 at 6 days [1]: 32 µM

CCOC(=O)C1=C(CN2CC(F)(F)[C@H]3CCN(C(=O)C(C)(C)C(=O)O)C[C@H]32)NC(c2nccs2)=N[C@H]1c1cccc(F)c1C (single isomer, unassigned) [Compound I-3, 3-((3aS*,7aS*)-1-(((S)-5-(ethoxycarbonyl)-6-(3-fluoro-2-methylphenyl)-2-(thiazol-2-yl)-3,6-dihydropyrimidin-4-yl)methyl)-3,3-difluorohexahydro-1H-pyrrolo[2,3-c]pyridin-6(2H)-yl)-2,2-dimethyl-3-oxopropanoic acid]
EC50 (HBV): 0.21 µM | CC50 at 6 days [1]: 30 µM

CCOC(=O)C1=C(CN2CC(F)(F)[C@H]3CN(CC(C)(C)C(=O)O)CC[C@H]32)NC(c2nccs2)=N[C@H]1c1cccc(F)c1C (single isomer, unassigned) [Compound I-6, 3-((3aS*,7aR*)-1-(((S)-5-(ethoxycarbonyl)-6-(3-fluoro-2-methylphenyl)-2-(thiazol-2-yl)-3,6-dihydropyrimidin-4-yl)methyl)-3,3-difluorohexahydro-1H-pyrrolo[3,2-c]pyridin-5(6H)-yl)-2,2-dimethylpropanoic acid]
EC50 (HBV): 0.081 µM | CC50 at 6 days [1]: 43.4 µM
